Our source for the Activity values is ChEMBL document CHEMBL3393026, “A selective small molecule NOP (ORL-1 receptor) partial agonist for the treatment of anxiety” (Bioorg Med Chem Lett, 2015).

The structures appear in SMILES notation.

Series [1] deals with Rattus norvegicus. Nature of the series: Anxiolytic activity in Long-Evans hooded rat assessed as open arm time at 0.1 mg/kg, ip by elevated plus maze test. Type of series: functional. The following applies: route intraperitoneal.
Series [2] deals with Rattus norvegicus. Briefly: Sedative activity in Long-Evans hooded rat assessed as vertical movements at 10 mg/kg, ip by spontaneous locomotor activity test. Also noted: dose 10 mg/kg, route intraperitoneal. The following applies: in vivo. The format is organism-based.
For series [3], the system named is Rattus norvegicus. Nature of the series: Anxiolytic activity in Long-Evans hooded rat assessed as open arm time at 0.03 mg/kg, ip by elevated plus maze test. Type of series: functional. The following applies: route intraperitoneal.
Series [4] relates to Rattus norvegicus. Nature of the series: Anxiolytic activity in Long-Evans hooded rat assessed as open arm time at 1 mg/kg, ip by elevated plus maze test. The note with it: route intraperitoneal. Type of series: functional.
The test system of series [5] is Rattus norvegicus. Briefly: Sedative activity in Long-Evans hooded rat assessed as vertical movements at 0.03 mg/kg, ip by spontaneous locomotor activity test. Type of series: organism-based. Also noted: dose 0.03 mg/kg, route intraperitoneal. The following applies: in vivo.
Series [6] has as its system Rattus norvegicus. Briefly: Anxiolytic activity in Long-Evans hooded rat assessed as open arm time at 3 mg/kg, ip by elevated plus maze test. Type of series: functional. The following applies: route intraperitoneal.
Series [7] concerns Rattus norvegicus. Nature of the series: Sedative activity in Long-Evans hooded rat assessed as vertical movements at 3 mg/kg, ip by spontaneous locomotor activity test. Type of series: organism-based. Also noted: dose 3 mg/kg, route intraperitoneal. The note with it: in vivo.
Series [8] deals with Rattus norvegicus. Briefly: Sedative activity in Long-Evans hooded rat assessed as vertical movements at 0.1 mg/kg, ip by spontaneous locomotor activity test. Type of series: organism-based. Also noted: dose 0.1 mg/kg, route intraperitoneal. The note with it: in vivo.
For series [9], the system named is Rattus norvegicus. Nature of the series: Sedative activity in Long-Evans hooded rat assessed as vertical movements at 1 mg/kg, ip by spontaneous locomotor activity test. Type of series: organism-based. Also noted: dose 1 mg/kg, route intraperitoneal. The note with it: in vivo.
Series [10] has as its system Rattus norvegicus. Briefly: Anxiolytic activity in Long-Evans hooded rat assessed as open arm time at 0.3 mg/kg, ip by elevated plus maze test. The format is functional. The following applies: route intraperitoneal.
The test system of series [11] is Rattus norvegicus. Briefly: Sedative activity in Long-Evans hooded rat assessed as vertical movements at 0.3 mg/kg, ip by spontaneous locomotor activity test. Type of series: organism-based. Also noted: dose 0.3 mg/kg, route intraperitoneal. The note with it: in vivo.
In series [12] the test system is Rattus norvegicus. Nature of the series: Anxiolytic activity in Long-Evans hooded rat assessed as open arm time at 0.5 mg/kg, ip by elevated plus maze test. Type of series: functional. The note with it: route intraperitoneal.
The subject of series [13] is Rattus norvegicus. Briefly: Sedative activity in Long-Evans hooded rat assessed as vertical movements at 0.5 mg/kg, ip by spontaneous locomotor activity test. Type of series: organism-based. Also noted: dose 0.5 mg/kg, route intraperitoneal. The note with it: in vivo.

Turning to `CCCCN(Cc1ccccc1)C[C@H](O)CN1CN(c2ccc(F)cc2)C2(CCN(CC3CCCCCCC3)CC2)C1=O`, the Activity in the series on Rattus norvegicus [1] is 72.5%; in the series on Rattus norvegicus [2], -6.2%; in the series with Rattus norvegicus [3], 5.9%; in the series with Rattus norvegicus [4], 57.8%; with Rattus norvegicus [5], -0.4%; in the series with Rattus norvegicus [6], 24%. For the same compound, the Activity in the series on Rattus norvegicus [7] is 2.2%; in the series with Rattus norvegicus [8], 11.4%; with Rattus norvegicus [9], 7.6%; in the series with Rattus norvegicus [10], 54.4%; in the series with Rattus norvegicus [11], 16%.
For `O=C1Nc2ccc(Cl)cc2C(c2ccccc2Cl)=NC1O` (stereo not drawn) [LORAZEPAM], the Activity with Rattus norvegicus [12] is given as 222.4%; with Rattus norvegicus [13], -72%.
